Reference: patent publication US20220306622A1, “SALT AND CRYSTAL FORM OF MTORC1/2 DUAL KINASE ACTIVITY INHIBITOR AND PREPARATION METHOD THEREFOR” (MEDSHINE DISCOVERY INC., priority 2019, published 2022)
Entries after “also recorded” stand apart in the source; their conditions may differ.

What was measured:
[1] = Solid stability test under long-term and accelerated conditions (XRPD); type: physicochemical
Method: Each sample was put into a double-layer LDPE Bag with each layer buckled and sealed respectively, and then the LDPE Bag was put into an aluminum foil bag and heat sealed. The samples were investigated for XRPD under the conditions of 25° C./60% RH (14 bags), 30° C./65% RH (10 bags) and 40° C./75% RH (10 bags). The test results were compared with the initial test results of 0 days.

[2] = Dynamic vapor sorption (DVS) hygroscopicity study; type: physicochemical; conditions: 25.6° C. and 80% RH
Method: Instrument model: SMS DVS Advantage dynamic vapour adsorbent device
Test conditions: taking the sample (10-15 mg) and putting it into a DVS sample tray for test.
Detailed DVS parameters are as follows:
Balance: dm/dt=0.01%/min (minimum: 10 min, maximum: 180 min)
RH(%) test step range: 0%-90%-0% RH (%)
The evaluation of moisture absorption is classed as follows:
DVS Advantage dynamic vapour adsorbent device

[3] = tested on: subcutaneous xenografts of human breast cancer MCF-7 cell; test: In vivo pharmacodynamic study, subcutaneous MCF-7 xenograft model; design: species or system nude BALB/c mice
Method: Experimental objective: to study the in vivo efficacy of the compound to be tested on subcutaneous xenografts of human breast cancer MCF-7 in nude BALB/c mice model.
Experimental animals: female BALB/C nude mice, 6-8 weeks old, weighing 18-22 g; Supplier: Shanghai Xipur Bikai Experimental Animal Co., Ltd.
Human breast cancer MCF-7 cells (ECACC, item number: 86012803) were cultured in monolayer in vitro. The culture conditions were EMEM (EBSS)+2 mM […]+1% Non Essential Amino Acids (NEAA) medium plus 10% fetal bovine serum, 100 U/mL penicillin and 100 μg/mL streptomycin, incubated in 5% CO2 incubator at 37° C. Cells were passaged through routine digestion using Trypsin EDTA twice a week. When the cell saturation was 80%-90% and the number reached the requirements, cells were collected, counted and inoculated. […]
The experimental index is used for investigating whether tumor growth is inhibited, delayed or cured. The tumor diameter was measured with a vernier caliper twice a week. […]
The antitumor effect of the compound was evaluated by TGI (%) or relative tumor proliferation rate T/C(%). […]
Relative tumor proliferation rate T/C (%): the calculation formula is as follows: T/C %=TRTV/CRTV (TRTV:RTV in treatment group; CRTV:RTV in negative control group). The relative tumor volume (RTV) is calculated according to the results of tumor measurement. […]

mTOR kinase = target: T1, mTOR kinase (Homo sapiens, UniProt P42345); test: mTOR kinase inhibitory activity in vitro (discoverx ligand-bead competition binding, qPCR)
T1 construct: purchased discoverx; host or cells: HEK-293
Method: This experiment was tested on discoverx, and all materials and methods were from discoverx.
1. The labeled mTOR kinase was stably expressed in HEK-293 cells.
2. Streptavidin magnetic beads were treated with biotinylated small molecule ligands for 30 minutes at room temperature to produce an affinity resin for kinase analysis;
3. The ligand beads were blocked with excess biotin and washed with buffer (1% bovine serum albumin, 20 […] of dithiothreitol) to wash off unbound ligands and nonspecifically bound ligands;
5. The test compound was dissolved in dimethyl sulfoxide;
6. All compounds used for measurement were dissolved in DMSO and then diluted directly to a concentration of 0.9%;
7. The solution was placed on 384 well polypropylene plates with a volume of 0.02 mL of each well;
8. The plate was shaked at room temperature for 1 hour;
9. The plate was washed with buffer (1× PBS, 0.05% Tween 20);
10. Affinity beads were resuspended in buffer (1× PBS, 0.05% Tween 20, 0.5 μM nonbiotin-affinity ligands) and incubated at room temperature for 30 minutes;
11. The kinase in eluent was measured for its concentration by qPCR.

N87 cells = test: Cell proliferation inhibitory activity (Cell-Titer-Glo), N87; type: cell-based
Method: (§1) Objective: the inhibitory activity of the compound to be tested was tested on cell proliferation.
(§2) Experimental principle: Luciferase in Cell-Titer-Glo reagent uses luciferin, oxygen and ATP as reaction substrates to produce oxidized luciferin and release energy in the form of light. Since ATP is required for luciferase reaction, the total amount of light produced by the reaction is directly proportional to the total amount of ATP in response to cell viability.
(§3) Cell lines: MCF-7 cell line (ATCC-CRL-22), HT-29 cell line (ATCC-HTB-38), OE21 (ECACC-96062201), NCI-N87 cell line (ATCC-CRL-5822)
(§4) Cell Titer-Glo® Luminescent cell viability test kit (Promega #G7573)
(§5) According to the schematic diagram of cell seed plate, 384 or 96 well plate was seeded based on 1000 cells per well with a density of 25 μL per well, and the edge well was supplemented with 25 μL PBS, instead of cells.
(§6) (1) The mother liquor of the compound was 10 mM, and the compound was diluted with DMSO to obtain its initial concentration of 4 mM. The compound was added into the mother liquor plate with 9 μL per well. […]
(§7) The cell plate was taken from the incubator and balanced at room temperature for 30 minutes. […] After 10 minutes, the plate reading was performed on PerkinElmer envision with setting the […] reading time of 0.2 seconds.

MCF-7 cells = test: Cell proliferation inhibitory activity (Cell-Titer-Glo), MCF-7; type: cell-based, human
Method: as §1, §2, §3, §4, §5, §6, §7

[4] = Pharmacokinetic evaluation in plasma of mice (IV and PO); type: in vivo, BALB/C female mice; conditions: mouse
Method: The tested compound was mixed with 5% DMSO/95% 10% polyoxyethylene castor oil (Cremophor EL) followed by vortex and ultrasonic treatment to prepare 1 mg/mL approximate clear solution, which was filtered by microporous membrane before used. BALB/C female mice of 18 to 20 g were injected with the compound solution intravenously at a dose of 1 or 2 mg/kg. The tested compound was mixed with 1% Tween […], 90% aqueous solution followed by vortex and ultrasonic treatment to prepare 1 mg/mL approximate clear solution, which was filtered by microporous membrane before used. BALB/C female mice of 18 to 20 g were given the candidate compound solution orally at a dose of 2 or 10 mg/kg. Whole blood was collected for a certain time to prepare plasma. The medicament was analyzed for its concentration by LC-MS/MS, and the pharmacokinetic parameters were calculated by Phoenix winnonlin software (pharsight company).

With C[C@H]1COCCN1c1nc(N2CCOC3(CC3)C2)nc2nc(-c3cccc(C(N)=O)c3)ccc12 the “Crystal form (XRPD)” value ([1]; 25° C./60% RH, 3 months) was “Crystal form A”, the “Crystal form (XRPD)” value ([1]; 25° C./60% RH, 6 months) was “Crystal form A” and the “Crystal form (XRPD)” value ([1]; 40° C./75% RH, 3 months) was “Crystal form A”. The “Crystal form (XRPD)” value ([1]; 40° C./75% RH, 6 months) was “Crystal form A”, the “Crystal form (XRPD)” value ([1]; Day 0 (initial)) was “Crystal form A” and the “solid stability (in words)” value ([1]; high temperature, high humidity and strong light) was “good stability”. The “hygroscopicity (classification)” value [2] was “without hygroscopicity” and the “ΔW % (hygroscopic weight gain)” value [2] was < 0.2%.
In the case of CNC(=O)c1cccc(-c2ccc3c(N4CCOC[C@@H]4C)nc(N4CCOC[C@@H]4C)nc3n2)c1 [AZD2014, reference compound], the “RTV (day 27)” value ([3]; 15 mg/kg) is reported as 0.85 ± 0.26.
In the case of C[C@H]1COCCN1c1nc(N2CCOC3(CC3)C2)nc2nc(-c3cccc(C(N)=O)c3)ccc12 [Compound of formula (I)], the “mTOR kinase inhibitory activity (in words)” value (mTOR kinase) is reported as “significant or even unexpected mTOR kinase inhibitory activity, which is better than the current clinical compound AZD2014”, the “efficacy in MCF-7 Xenograft tumor model compared with AZD2014 (in words)” value ([3]; mouse, in vivo) is reported as “equivalent to that of AZD2014; also recorded: comparable to AZD2014” and the “inhibitory activity on proliferation of N87 cells (in words)” value (N87 cells) is reported as “obvious inhibitory activity”. The “inhibitory activity on proliferation of MCF-7 cells (in words)” value (MCF-7 cells) was “obvious inhibitory activity”, the bioavailability ([4]; female, BALB/C, plasma, 10 mg/kg, oral administration) was ~100% and the “pharmacokinetic properties compared with the reference compound (in words)” value [4] was “the same or even better pharmacokinetic properties as the reference compound”.
